Among the test systems are Hs-578T; HCT-15; U-251; HCT-116; 786-0; SF-539; NCI-H522; MDA-MB-435; UACC-62; CCRF-CEM; SK-OV-3; BT-549; CAKI-1; OVCAR-3; SNB-75; TK-10; RXF 393; M14; NCI-H460.
Assay in all cases: NCI tumour cell line growth inhibition, 48 h

The structures appear in SMILES notation.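 Method: 48-hour compound exposure of cells in 96-well plates, five concentrations, linear interpolation of endpoints. At the GI50, growth is halved.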 Calls of active or inactive are those of the source. Rule as the data show it: active = GI50 up to about 1.1 µM and inactive = higher.

`CN/C(=N\N)NS(=O)(=O)c1cc(C)c(Cl)cc1S`: the GI50 was 20.6 µM (inactive) with Hs-578T; 48.2 µM in the assay on HCT-15; 64.1 µM (inactive) in the assay on U-251; 66.5 µM (inactive) in the assay with HCT-116; 27.3 µM (inactive) with 786-0; > 100 µM (inactive) with SF-539. Also, the GI50 was 25.2 µM (inactive) in the assay with NCI-H522; 43.5 µM (inactive) in the assay on MDA-MB-435; 53.7 µM (inactive) in the assay with UACC-62; 43.6 µM (inactive) in the assay on CCRF-CEM; > 100 µM (inactive) with SK-OV-3; 38.5 µM (inactive) in the assay with BT-549. Besides, the GI50 in the assay on CAKI-1 is 45.8 µM (inactive); in the assay on OVCAR-3 it was 57.5 µM (inactive); in the assay on SNB-75, > 100 µM (inactive); in the assay on TK-10, 77.4 µM (inactive); with RXF 393 it was 33.4 µM (inactive); in the assay on M14 it was 54.5 µM (inactive).

Regarding `SC1CCCN(Cc2ccccc2)C1` (centres undefined), the GI50 in the assay on Hs-578T was 78.5 µM (inactive); in the assay on HCT-15 it was 38.2 µM; with U-251 it was 33.4 µM (inactive); in the assay with HCT-116, 61.1 µM (inactive); with 786-0, 35.7 µM (inactive); in the assay on SF-539, > 100 µM (inactive). In addition, the GI50 in the assay with NCI-H522 was 35.7 µM (inactive); in the assay with MDA-MB-435 it was 31.6 µM (inactive); with UACC-62, 44.8 µM (inactive); with NCI-H460 it was 23.9 µM (inactive); in the assay on SK-OV-3, > 100 µM (inactive); in the assay on BT-549 it was > 100 µM (inactive). Further, the GI50 with CAKI-1 was 74.1 µM (inactive); with OVCAR-3, > 100 µM (inactive); in the assay with SNB-75, > 100 µM (inactive); in the assay with TK-10 it was 69.7 µM (inactive); with RXF 393, > 100 µM (inactive); in the assay with M14, 20 µM (inactive).

Turning to `C/C(=N\Nc1nc2cccnc2s1)c1ccccn1`, the GI50 was 0.436 µM (active) in the assay on Hs-578T; less than 0.0218 µM in the assay on HCT-15; < 0.0189 µM (active) in the assay on U-251; < 0.01 µM (active) with HCT-116; 0.0512 µM (active) with 786-0; 0.124 µM (active) with SF-539. Further, the GI50 is < 0.01 µM (active) with NCI-H522; 0.8 µM (active) in the assay with MDA-MB-435; 0.0586 µM (active) in the assay on UACC-62; < 0.01 µM (active) in the assay with CCRF-CEM; 0.0369 µM (active) with NCI-H460; 0.0902 µM (active) in the assay on SK-OV-3. Besides, the GI50 is 0.117 µM (active) in the assay with BT-549; < 0.0105 µM (active) in the assay with CAKI-1; < 0.0169 µM (active) with OVCAR-3; 0.451 µM (active) in the assay with SNB-75; 1.06 µM (active) in the assay on RXF 393; < 0.01 µM (active) with M14.

Regarding `O=P1(O)c2ccccc2CCc2ccccc21`, the GI50 was > 100 µM (inactive) in the assay with Hs-578T; more than 100 µM in the assay with HCT-15; > 100 µM (inactive) with HCT-116; > 100 µM (inactive) in the assay on 786-0; > 100 µM (inactive) in the assay on SF-539; > 100 µM (inactive) in the assay with NCI-H522. Moreover, the GI50 with MDA-MB-435 was > 100 µM (inactive); with UACC-62, > 100 µM (inactive); in the assay with CCRF-CEM it was > 100 µM (inactive); with SK-OV-3, > 100 µM (inactive); in the assay on BT-549, 80.7 µM (inactive); in the assay with CAKI-1, > 100 µM (inactive). For the same compound, the GI50 with OVCAR-3, in the assay on SNB-75, in the assay with TK-10, with RXF 393 and in the assay with M14 was > 100 µM (inactive) throughout.

For `CCOC(=O)C1=C(C)N(Cc2ccc(Cl)cc2Cl)C2(O)C(OC)CC(=O)C3C(=O)N(c4ccccc4)C(=O)C132` (centres undefined), the GI50 is 9.06 µM (inactive) with Hs-578T; 1.36 µM in the assay on HCT-15; 1.5 µM (inactive) in the assay on U-251; 1.39 µM (inactive) with HCT-116; 1.47 µM (inactive) in the assay with 786-0; 2.86 µM (inactive) with SF-539. Further, the GI50 is 2.01 µM (inactive) in the assay with NCI-H522; 2.63 µM (inactive) in the assay with MDA-MB-435; 3.13 µM (inactive) with UACC-62; 0.466 µM (active) in the assay on CCRF-CEM; 2.92 µM (inactive) with NCI-H460; 1.61 µM (inactive) with BT-549. The GI50 with CAKI-1 was 6.71 µM (inactive); in the assay with OVCAR-3 it was 1.33 µM (inactive); in the assay with SNB-75, < 0.01 µM (active); in the assay with TK-10 it was 10 µM (inactive); in the assay on RXF 393, 1.11 µM (active); in the assay with M14, 2.09 µM (inactive).

Turning to `ON(CCc1ccncc1)Cc1ccccc1`, the GI50 was > 100 µM (inactive) in the assay on Hs-578T; more than 100 µM with HCT-15; > 100 µM (inactive) with HCT-116; > 100 µM (inactive) in the assay on 786-0; > 100 µM (inactive) in the assay on SF-539; > 100 µM (inactive) in the assay on NCI-H522. The GI50 in the assay on MDA-MB-435, in the assay on UACC-62, with SK-OV-3, with BT-549, in the assay on CAKI-1 and in the assay on OVCAR-3 was > 100 µM (inactive) throughout. The GI50 in the assay on SNB-75, with RXF 393 and in the assay with M14 was > 100 µM (inactive) in each case.

On to `COc1cc(Oc2nc3ccccc3nc2C(=O)O)cc(OC)c1OC`, for which the GI50 is > 100 µM (inactive) in the assay on Hs-578T; more than 100 µM with HCT-15; > 100 µM (inactive) in the assay with U-251; > 100 µM (inactive) in the assay on HCT-116; > 100 µM (inactive) with 786-0; > 100 µM (inactive) with NCI-H522. Also, the GI50 with MDA-MB-435, in the assay on UACC-62, in the assay with CCRF-CEM, in the assay on NCI-H460, in the assay with SK-OV-3 and in the assay on BT-549 was > 100 µM (inactive) throughout. Besides, the GI50 in the assay with CAKI-1, in the assay with OVCAR-3, in the assay on SNB-75, with TK-10, in the assay on RXF 393 and with M14 was > 100 µM (inactive) in each case.

Turning to `O=C1C=CC(=O)C(N(CCO)CCO)=C1.O=C1C=CC2(O)OCCN(CCO)C2=C1`, the GI50 in the assay with Hs-578T is > 100 µM (inactive); with HCT-15 it was more than 100 µM; in the assay on U-251, > 100 µM (inactive); in the assay on HCT-116 it was > 100 µM (inactive); in the assay with 786-0, > 100 µM (inactive); in the assay with NCI-H522, > 100 µM (inactive). In addition, the GI50 in the assay on MDA-MB-435, in the assay on UACC-62, with CCRF-CEM, with NCI-H460, in the assay with SK-OV-3 and with BT-549 was > 100 µM (inactive) each time. Also, the GI50 in the assay on CAKI-1, in the assay with OVCAR-3, with SNB-75, with TK-10, in the assay with RXF 393 and in the assay on M14 was > 100 µM (inactive) throughout.

Consider `O=C(NCCO)c1c(O)c2ccccc2[nH]c1=O`, for which the GI50 in the assay with Hs-578T was > 100 µM (inactive); with HCT-15, 62.2 µM; with U-251 it was > 100 µM (inactive); in the assay with HCT-116, > 100 µM (inactive); in the assay with 786-0, > 100 µM (inactive); with SF-539, > 100 µM (inactive). Further, the GI50 in the assay with NCI-H522, in the assay on MDA-MB-435, in the assay with CCRF-CEM, in the assay on NCI-H460, in the assay on BT-549 and in the assay on CAKI-1 was > 100 µM (inactive) in each case. Further, the GI50 in the assay with OVCAR-3, in the assay on SNB-75, in the assay on TK-10 and in the assay with RXF 393 was > 100 µM (inactive) in each case.

For `Oc1ccccc1/C=N/c1ccc(-c2nc3ccccc3[nH]2)cc1`, the GI50 was > 100 µM (inactive) in the assay on Hs-578T; 29.6 µM in the assay on HCT-15; 49.9 µM (inactive) with U-251; 53.6 µM (inactive) with HCT-116; > 100 µM (inactive) with 786-0; > 100 µM (inactive) with SF-539. The GI50 in the assay on NCI-H522 is 63.5 µM (inactive); in the assay with MDA-MB-435, 67.6 µM (inactive); in the assay on CCRF-CEM it was 22.5 µM (inactive); with NCI-H460 it was 54.8 µM (inactive); in the assay on SK-OV-3, > 100 µM (inactive); with BT-549, 12.8 µM (inactive). The GI50 was > 100 µM (inactive) in the assay with CAKI-1; > 100 µM (inactive) in the assay with OVCAR-3; 42.1 µM (inactive) with SNB-75; > 100 µM (inactive) in the assay with TK-10; 29.7 µM (inactive) in the assay with RXF 393; 63.4 µM (inactive) in the assay on M14.

For the compound `Cc1cc(S(=O)(=O)NC2=Nc3cccc4cccc(c34)N2)c(S)cc1Cl`, the GI50 with Hs-578T is > 100 µM (inactive); in the assay on HCT-15 it was more than 100 µM; with U-251, 50 µM (inactive); in the assay with HCT-116, 18.1 µM (inactive); in the assay with 786-0, 84.5 µM (inactive); in the assay with SF-539 it was > 100 µM (inactive). Moreover, the GI50 in the assay with NCI-H522 is > 100 µM (inactive); with MDA-MB-435 it was 83.4 µM (inactive); in the assay with UACC-62 it was > 100 µM (inactive); with CCRF-CEM, 44.5 µM (inactive); in the assay with NCI-H460, 55.6 µM (inactive); in the assay with BT-549 it was > 100 µM (inactive). Moreover, the GI50 in the assay with CAKI-1 is > 100 µM (inactive); with OVCAR-3 it was 53.7 µM (inactive); in the assay with SNB-75, > 100 µM (inactive); in the assay with RXF 393, 97.5 µM (inactive); in the assay on M14 it was 65.2 µM (inactive).

As for `CN(C)CCNC(=O)c1cccc2nc3c(C(=O)NCCN(C)C)cccc3nc12`, the GI50 in the assay on Hs-578T is 1.89 µM (inactive); in the assay with HCT-15, 2.98 µM; in the assay on U-251, 0.632 µM (active); in the assay with HCT-116, 0.603 µM (active); in the assay on 786-0, 0.393 µM (active); with SF-539 it was 1.92 µM (inactive). The GI50 in the assay on NCI-H522 was 0.458 µM (active); in the assay on MDA-MB-435 it was 1.21 µM (inactive); with UACC-62, 2.9 µM (inactive); in the assay on CCRF-CEM, 0.59 µM (active); in the assay on NCI-H460, 0.82 µM (active); in the assay on BT-549 it was 3.18 µM (inactive). In addition, the GI50 in the assay on CAKI-1 was 2.14 µM (inactive); in the assay on OVCAR-3 it was 1.7 µM (inactive); in the assay on SNB-75 it was 2.63 µM (inactive); with TK-10 it was 1.86 µM (inactive); with RXF 393, 1.44 µM (inactive); in the assay on M14 it was 1.51 µM (inactive).
